In ChEMBL document CHEMBL1201862, “PubChem BioAssay data set” (2004):
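Following 48 hours of exposure in 96-well plates, responses at five concentrations were used to interpolate endpoints linearly. GI50: concentration for 50% inhibition of growth.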 Active and inactive are the calls of the source. Rule as the data show it: active = GI50 up to about 1.1 µM and inactive = higher.

Experiments:
Assay in all cases: NCI anticancer screen, dose series, 48 h
NCI/ADR-RES = test system: NCI/ADR-RES
IGROV-1 = test system: IGROV-1
MOLT-4 = test system: MOLT-4
SK-MEL-5 = test system: SK-MEL-5
MDA-N = test system: MDA-N
MCF7 = test system: MCF7
ACHN = test system: ACHN
SF-539 = test system: SF-539
SNB-75 = test system: SNB-75
HT-29 = test system: HT-29
OVCAR-3 = test system: OVCAR-3
TK-10 = test system: TK-10
HCT-15 = test system: HCT-15
CAKI-1 = test system: CAKI-1
SF-295 = test system: SF-295
UACC-257 = test system: UACC-257
RXF 393 = test system: RXF 393
KM12 = test system: KM12
U-251 = test system: U-251
Malme-3M = test system: Malme-3M

Row | SMILES | GI50 (NCI/ADR-RES) | GI50 (IGROV-1) | GI50 (MOLT-4) | GI50 (SK-MEL-5) | GI50 (MDA-N) | GI50 (MCF7) | GI50 (ACHN) | GI50 (SF-539) | GI50 (SNB-75) | GI50 (HT-29) | GI50 (OVCAR-3) | GI50 (TK-10) | GI50 (HCT-15) [µM] | GI50 (CAKI-1) | GI50 (SF-295) | GI50 (UACC-257) | GI50 (RXF 393) | GI50 (KM12) | GI50 (U-251) | GI50 (Malme-3M)
1 | CN(C)C(=O)Oc1ccc(-c2cn3cc(NC(=O)c4ccccc4)ccc3n2)cc1 | > 100 µM (inactive) | 70.8 µM (inactive) | 17.2 µM (inactive) | 21.4 µM (inactive) | > 100 µM (inactive) | 31.7 µM (inactive) | > 100 µM (inactive) | > 100 µM (inactive) | 86.1 µM (inactive) | 87.3 µM (inactive) | 53.7 µM (inactive) | > 100 µM (inactive) | > 100 | > 100 µM (inactive) | > 100 µM (inactive) | 53.8 µM (inactive) | > 100 µM (inactive) | 55.5 µM (inactive) | 45.3 µM (inactive) | –
2 | COC1CC(N)(c2ccccc2)C(O)C(C)O1 (centres undefined) | > 100 µM (inactive) | > 100 µM (inactive) | > 100 µM (inactive) | > 100 µM (inactive) | > 100 µM (inactive) | > 100 µM (inactive) | > 100 µM (inactive) | > 100 µM (inactive) | > 100 µM (inactive) | – | > 100 µM (inactive) | – | > 100 | > 100 µM (inactive) | > 100 µM (inactive) | > 100 µM (inactive) | > 100 µM (inactive) | – | > 100 µM (inactive) | > 100 µM (inactive)
3 | COc1ccc(NC(=S)Nc2cc(C)cc(C)n2)cc1 | > 100 µM (inactive) | > 100 µM (inactive) | > 100 µM (inactive) | > 100 µM (inactive) | > 100 µM (inactive) | > 100 µM (inactive) | – | > 100 µM (inactive) | > 100 µM (inactive) | > 100 µM (inactive) | > 100 µM (inactive) | > 100 µM (inactive) | > 100 | > 100 µM (inactive) | > 100 µM (inactive) | > 100 µM (inactive) | > 100 µM (inactive) | > 100 µM (inactive) | > 100 µM (inactive) | > 100 µM (inactive)
4 | O/N=C\c1c(O)ccc2ccccc12 | 68.2 µM (inactive) | – | – | 46.7 µM (inactive) | 66.5 µM (inactive) | 37.8 µM (inactive) | 24.8 µM (inactive) | 44 µM (inactive) | 41.8 µM (inactive) | 54.5 µM (inactive) | 20.2 µM (inactive) | 40.4 µM (inactive) | 32.2 | 30.8 µM (inactive) | 41.7 µM (inactive) | 71.9 µM (inactive) | 35.2 µM (inactive) | 42.3 µM (inactive) | 51.8 µM (inactive) | 12.6 µM (inactive)
5 | Clc1nss/c1=N/c1nonc1-c1ccccc1 | 24 µM (inactive) | 26.4 µM (inactive) | 25.1 µM (inactive) | 20.3 µM (inactive) | 20.1 µM (inactive) | 22.7 µM (inactive) | 18.6 µM (inactive) | 22.7 µM (inactive) | 23.2 µM (inactive) | 22 µM (inactive) | 39 µM (inactive) | – | > 100 | 17.1 µM (inactive) | 55.2 µM (inactive) | 33 µM (inactive) | 29.2 µM (inactive) | 31 µM (inactive) | 41.1 µM (inactive) | 28 µM (inactive)
6 | C=C(CO)[C@H]1CC/C(C)=C/CC/C(C)=C/C/C=C(\C)[C@H](O)C1 | 27.3 µM (inactive) | 17.8 µM (inactive) | 18.3 µM (inactive) | 18.9 µM (inactive) | 34.5 µM (inactive) | 26 µM (inactive) | 26.3 µM (inactive) | 23.5 µM (inactive) | 31 µM (inactive) | 18.5 µM (inactive) | 33.7 µM (inactive) | 20.6 µM (inactive) | 50 | 31.3 µM (inactive) | 34.8 µM (inactive) | 19.7 µM (inactive) | 19.9 µM (inactive) | 15.9 µM (inactive) | 19.1 µM (inactive) | –
7 | CCOC(=O)C12CCC(=O)N1N(C)c1ncccc1N2 (centres undefined) | > 100 µM (inactive) | > 100 µM (inactive) | > 100 µM (inactive) | > 100 µM (inactive) | > 100 µM (inactive) | > 100 µM (inactive) | > 100 µM (inactive) | > 100 µM (inactive) | 67.1 µM (inactive) | > 100 µM (inactive) | > 100 µM (inactive) | > 100 µM (inactive) | > 100 | > 100 µM (inactive) | > 100 µM (inactive) | > 100 µM (inactive) | > 100 µM (inactive) | > 100 µM (inactive) | > 100 µM (inactive) | –
8 | S=C1Cc2c([nH]c3ccccc23)-c2ccccc2N1 | 50 µM (inactive) | 65.3 µM (inactive) | 23.6 µM (inactive) | 42 µM (inactive) | 96.8 µM (inactive) | > 100 µM (inactive) | 23.6 µM (inactive) | 43.6 µM (inactive) | 26.2 µM (inactive) | > 100 µM (inactive) | 32.6 µM (inactive) | 21.5 µM (inactive) | – | 23.3 µM (inactive) | 98.6 µM (inactive) | 55 µM (inactive) | 18.3 µM (inactive) | > 100 µM (inactive) | – | 69.2 µM (inactive)
9 | O=P(O)(CN1CCN(CP(=O)(O)c2ccccc2)CCN(CP(=O)(O)c2ccccc2)CC1)c1ccccc1 | > 100 µM (inactive) | > 100 µM (inactive) | 26.4 µM (inactive) | 69.3 µM (inactive) | 67.8 µM (inactive) | 28.1 µM (inactive) | > 100 µM (inactive) | 67.1 µM (inactive) | > 100 µM (inactive) | 26.1 µM (inactive) | 56.6 µM (inactive) | 92.5 µM (inactive) | – | 45.8 µM (inactive) | > 100 µM (inactive) | – | 80 µM (inactive) | 47.9 µM (inactive) | 47.8 µM (inactive) | 56.2 µM (inactive)
10 | S=c1nc(Nc2ccccc2)c2c3c(sc2[nH]1)CCCC3 | > 100 µM (inactive) | > 100 µM (inactive) | > 100 µM (inactive) | > 100 µM (inactive) | > 100 µM (inactive) | > 100 µM (inactive) | > 100 µM (inactive) | – | > 100 µM (inactive) | > 100 µM (inactive) | > 100 µM (inactive) | > 100 µM (inactive) | > 100 | > 100 µM (inactive) | > 100 µM (inactive) | > 100 µM (inactive) | > 100 µM (inactive) | > 100 µM (inactive) | > 100 µM (inactive) | > 100 µM (inactive)
11 | C=C1CC2CC(=O)C(O)C(C1)C2 (centres undefined) | > 100 µM (inactive) | – | > 100 µM (inactive) | > 100 µM (inactive) | > 100 µM (inactive) | > 100 µM (inactive) | > 100 µM (inactive) | > 100 µM (inactive) | 58.5 µM (inactive) | > 100 µM (inactive) | > 100 µM (inactive) | > 100 µM (inactive) | > 100 | > 100 µM (inactive) | > 100 µM (inactive) | > 100 µM (inactive) | > 100 µM (inactive) | > 100 µM (inactive) | – | –
12 | O=C(O)C(Br)C(Br)c1ccccc1[N+](=O)[O-] (centres undefined) | > 100 µM (inactive) | > 100 µM (inactive) | – | > 100 µM (inactive) | > 100 µM (inactive) | > 100 µM (inactive) | > 100 µM (inactive) | > 100 µM (inactive) | > 100 µM (inactive) | > 100 µM (inactive) | 46.9 µM (inactive) | > 100 µM (inactive) | > 100 | > 100 µM (inactive) | > 100 µM (inactive) | > 100 µM (inactive) | > 100 µM (inactive) | > 100 µM (inactive) | > 100 µM (inactive) | > 100 µM (inactive)
13 | O=C1C(Cl)C(c2cccc(Cl)c2)N1c1ccc(-n2c(S)nc3ccccc3c2=O)cc1 (centres undefined) | 25.8 µM (inactive) | 5.07 µM (inactive) | 14 µM (inactive) | 15.1 µM (inactive) | 19.1 µM (inactive) | 14.7 µM (inactive) | 18.7 µM (inactive) | 20 µM (inactive) | – | 18.8 µM (inactive) | 30.5 µM (inactive) | 29.6 µM (inactive) | 1.02 | 34.7 µM (inactive) | 19.2 µM (inactive) | 26.9 µM (inactive) | 4.08 µM (inactive) | 28.4 µM (inactive) | 13.3 µM (inactive) | 40.2 µM (inactive)
14 | Cc1ccc(Cc2cc(N3CCN(c4cccc(Cl)c4)CC3)nnc2C)cc1 | 43.3 µM (inactive) | – | – | 11.5 µM (inactive) | 16.4 µM (inactive) | 76.2 µM (inactive) | 88.5 µM (inactive) | 38.1 µM (inactive) | 50.4 µM (inactive) | 31.6 µM (inactive) | > 100 µM (inactive) | > 100 µM (inactive) | 63.8 | > 100 µM (inactive) | 42.9 µM (inactive) | 14.2 µM (inactive) | 84.7 µM (inactive) | 44.4 µM (inactive) | 32.7 µM (inactive) | –
15 | CC(C)(C)OC(=O)C1CCC/C1=N/Nc1ccc([N+](=O)[O-])cc1[N+](=O)[O-] (centres undefined) | 26.1 µM (inactive) | 25.5 µM (inactive) | 17.7 µM (inactive) | 13.9 µM (inactive) | 30.8 µM (inactive) | 30 µM (inactive) | 45.3 µM (inactive) | – | 19.1 µM (inactive) | 36.5 µM (inactive) | 46.6 µM (inactive) | 43.7 µM (inactive) | 39.4 | 39.4 µM (inactive) | 25 µM (inactive) | – | 33.2 µM (inactive) | 54.7 µM (inactive) | 22 µM (inactive) | 65.5 µM (inactive)
16 | COc1cc(S(=O)(=O)Nc2ccc(-c3csc(N)n3)cc2)ccc1Cl | 33.9 µM (inactive) | – | 11.1 µM (inactive) | 16.6 µM (inactive) | 19.4 µM (inactive) | 15.2 µM (inactive) | 17.4 µM (inactive) | 47.6 µM (inactive) | 21.4 µM (inactive) | 20.7 µM (inactive) | 14.9 µM (inactive) | – | 20.1 | 20.2 µM (inactive) | – | – | 12.2 µM (inactive) | – | – | 16.6 µM (inactive)
